Consider one compound from US7119229B2 (priority 2001, dated 2006).

In one series the test system is XF-498 (human CNS). As to the kind of experiment: SRB cytotoxicity assay, XF498. The format is cell-based. The following applies: 72 hours, read-out: ED50 XF498. The method, then: (§1) Human tumor cells, including MCF-7 (human breast adenomatous tumor), MCF-7/DOX (adriamycin resistant cell strain), MRS-SA (human uterine sarcoma), MES-SA/DX5 (adriamycin resistant cell strain), A 549 (human non-small cell lung), SKOV-3 (human ovarian), SKMEL-2 (human melanoma), XF-498 (human CNS), HCT-15 (human colon) were incubated at 37° C. in the presence of 5% CO2 using a DMEM culture medium. The respective cells were seeded into each well of 96-well plates at a concentration of 2×10^3˜5×10^3 cells/well. […] Each cell line of the resultant plates was fixed with trichloroacetic acid (TCA), stained with 0.4% SRB solution and rinsed with 1% acetic acid. Thereafter, the dye was dissolved in 10 mM Tris base to measure the optical density (OD) at 520 nm.
A general note: In SRB staining, fixed cells bind dye roughly in proportion to their protein.

Series [1] deals with WP2 uvrA strains (tryptophan auxotrophic strains). Nature of the series: Reverse mutation assay (Ames test), E. coli WP2 uvrA. The method, then:
This assay is carried out to test mutagenicity of chemical substances using histidine auxotrophic strains that are one of Salmonella Typhimurium mutants. […] When various mutagens are added to the culture medium, only revertants generated by reverse mutation survive.
Ames test was carried out using […]. […] After incubation, the number of revertant colonies was counted. 3 plates were prepared for each test and the average was calculated.
A general note: In the Ames test, an excess of revertant colonies over the control signals mutagenicity.

The test system of the next series is SKMEL-2 (human melanoma). Nature of the series: SRB cytotoxicity assay, SK-MEL-2. The format is cell-based. To be noted: SK-MEL-2, 72 h, read-out: ED50 SK-MEL-2. How it is done:
as §1

A further series deals with ICR mice. Nature of the series: Acute (intravenous administration) toxicity assay. The following applies: for Days for the test (death) Total: deaths/mice.
In the next series the test system is SKOV-3 (human ovarian). Nature of the series: SRB cytotoxicity assay, SK-OV-3. In kind it is cell-based. The following applies: 72 hours, read-out: ED50 SK-OV-3. The method, then: as §1

For the compound `COc1cc2c(c(OC)c1OC)-c1ccc(OC)c(=O)cc1[C@@H](NC(=O)c1cccc(CO[N+](=O)[O-])c1)CC2` [Compound 6, 3-nitrooxymethyl-N-(1,2,3,10-tetramethoxy-9-oxo-5,6,7,9-tetrahydro-benzo[a]heptarene-7-yl)-benzamide], the EC50 is 0.1 nM in the series on XF-498 (human CNS), 0.1 nM with SKMEL-2 (human melanoma) and 0.2 nM in the series with SKOV-3 (human ovarian). Also, the “Colony/Plate S-9 Mixture (+)” value in series [1] (317.5 μg/Plate) amounted to 12 Colony/Plate; in series [1] (625 μg/Plate) it was 12 Colony/Plate; in series [1] (1250 μg/Plate) it was 12 Colony/Plate; in series [1] (2500 μg/Plate) it was 9 Colony/Plate; in series [1] (5000 μg/Plate), 13 Colony/Plate. Also, the “Colony/Plate S-9 Mixture (−)” value in series [1] (317.5 μg/Plate) amounted to 16 Colony/Plate; in series [1] (625 μg/Plate), 9 Colony/Plate; in series [1] (1250 μg/Plate), 10 Colony/Plate; in series [1] (2500 μg/Plate) it was 8 Colony/Plate; in series [1] (5000 μg/Plate) it was 11 Colony/Plate. The “Days for the test (death) Total” value with ICR mice (5 mg/kg) was 0/5; in the series with ICR mice (10 mg/kg), 0/5; in the series with ICR mice (25 mg/kg), 0/2; in the series on ICR mice (50 mg/kg), 3/3. For the same compound, in the series on ICR mice (50 mg/kg, day 1), the “Days for the test (death) 1” value is reported as 3.
